The values that follow come from US8993595B2, “Macrocyclic serine protease inhibitors” (priority 2009, dated 2015).

In data set [1] the target is T1, HCV NS3-4A Protease Genotype 1b (Hepatitis C virus genotype 1b, UniProt Q9WMX2).
T1 construct: recombinant HCV NS3-4A proteases
Put plainly: HCV protease assay, recombinant NS3-4A genotype 1b. The data set is classed as biochemical. As to conditions: mean ± SD, 3 experiments. The procedure:
(§1) The compounds were tested at a variety of concentrations in assay buffer containing a final DMSO concentration of 5%. Reactions were allowed to proceed for 60 min at room temperature and fluorescence measurements were recorded with a Tecan Infinity Spectrofluorimeter. The IC50 values were determined from the percent inhibition versus concentration data using a sigmoidal non-linear regression analysis based on four parameters with Tecan Magellan software.
(§2) Compound 52 was tested against genotypes 1a, 1b, 2a, 3a, and 4a of recombinant HCV NS3-4A proteases, along with other cellular proteases.

For data set [2], the target named is T2, HCV NS3-4A Protease Genotype 3a (Hepatitis C virus genotype 3a, UniProt Q81258).
T2 construct: recombinant HCV NS3-4A proteases
The data set is described as follows: HCV protease assay, recombinant NS3-4A genotype 3a. Type of data set: biochemical. As to conditions: mean ± SD, 3 experiments. On the procedure: as §1, §2

The subject of data set [3] is 1b replicon. Put plainly: HCV replicon luciferase assay, genotype 1b. Type of data set: cell-based. On the procedure:
Compound 52 was tested against genotypes 1a, 1b, and 2a in an HCV replicon assay as described in Example 2. Replicon cells (genotype 1a or 1b) were seeded onto 96-well plates, cultured for three days in the presence of the compound, and subject to a luciferase assay.
Drug solutions were made up freshly in Huh-7 media as 2× stocks. Ten additional 5-fold dilutions were prepared from these stocks in DMEM without G418. […] Cells were then incubated at 37° C./5% CO2. […] For this, media was removed from the plates via gentle tapping. Fifty microliters of ONE-glo luciferase assay reagent was added to each well. […] The EC50 values were calculated from dose response curves from the resulting best-fit equations determined by Microsoft Excel and XLfit 4.1 software.
Background: Replicon systems follow genome replication, usually without infectious particles.

The subject of data set [4] is ZlucB cell line (genotype 1b replicon selected with 25 nM compound 52, D168V). The data set is described as follows: Extent of resistance after selection, luciferase assay, ZlucB. The data set is classed as cell-based, HCV. As to conditions: selecting conc. 25 nM, EC50 resistant / EC50 wild-type. On the procedure: Replicon cells (genotype 1a or 1b) were treated with various concentrations of compound 52 in the presence of G418. Treatment-emergent genotypic changes were identified by population sequencing of NS3 (both protease and helicase regions). The activity of compound 52 and other compounds was evaluated by NS5A western blot after selection or luciferase assay during and after selection.
Eight drug-resistance replicon cell lines were created by long-term culture of genotype 1b replicon cells with 10 or 25 nM of compound 52. NS3 (AAs 1-631) was sequenced at each passage.

The subject of data set [5] is genotype 1b luciferase-replicon NS3 A156S. On the procedure:
(§3) The activity of compound 52 was evaluated against replicons bearing single protease inhibitor-resistance mutations as compared to its activity against the wild-type replicon. Mutations were introduced into a genotype 1b luciferase-replicon by site-directed mutagenesis. Compound activity was measured in cells transiently transfected with in vitro transcribed wild-type or mutant luciferase-replicon RNA by luciferase assay after 4-day treatment. Replication capacity was determined in untreated transfected cells by comparing the luciferase activity at 4 hrs and 4 days post-transfection.

The subject of data set [6] is genotype 1b luciferase-replicon NS3 A156T. On the procedure: as §3
Data set [7] deals with genotype 1b luciferase-replicon NS3 D168A. On the procedure:
as §3

Data set [8] deals with genotype 1b luciferase-replicon NS3 D168E. The procedure:
as §3

The test system of data set [9] is genotype 1b luciferase-replicon NS3 D168V. The procedure: as §3
Data set [10] has as its system genotype 1b luciferase-replicon NS3 D168Y. The procedure:
as §3

Data set [11] relates to genotype 1b luciferase-replicon NS3 Q80R. The procedure:
as §3

The test system of data set [12] is genotype 1b luciferase-replicon NS3 R155K. On the procedure: as §3
In data set [13] the test system is genotype 1b luciferase-replicon NS3 R155Q. On the procedure:
as §3

In data set [14] the test system is genotype 1b luciferase-replicon NS3 T54A. The procedure:
as §3

The target of data set [15] is T3, human CYP450 2B6 (Homo sapiens, UniProt P20813).
T3 construct: purchased BD Bioscience
Put plainly: CYP450 inhibition assay, 2B6. The data set is classed as in vitro ADME. On the procedure: (§4) Compound 52 was incubated with human CYP450 cDNA-expressed isoenzymes according to the protocol (BD Bioscience). For CYP2C9, a luminogenic substrate was used with the P450-Glo™ kit. In addition, the effect of the compound on CYP2C9-mediated diclofenac metabolism was measured by LC-UV. The potential inhibitory effect of the compound on human UGT1A1 was examined using human liver microsomes and bilirubin as substrate. The metabolites (mono- and di-glucuronidated bilirubin) were measured by LC-UV.

Data set [16] addresses T4, human CYP450 2D6 (Homo sapiens, UniProt P10635).
T4 construct: purchased BD Bioscience
The data set is described as follows: CYP450 inhibition assay, 2D6. Type of data set: in vitro ADME. On the procedure: as §4

Data set [17] has as its system cardiovascular and respiratory systems of monkeys. The data set is classed as in vivo, cynomolgus monkey. As to conditions: oral doses up to 250 mg/kg. From the text: (§5) One in vitro GLP safety pharmacology study evaluated the effects of compound 52 on hERG channel currents in voltage-clamped human embryonic kidney cells (HEK293) stably expressing the human ether-à-go-go-related gene (hERG) channel. Four in vivo GLP safety pharmacology studies evaluated the potential effects of the compound on the cardiovascular and respiratory systems in the cynomolgus monkey and on the central nervous, renal, and gastrointestinal systems in the CD-1 mouse at single oral doses up to 250 mg/kg of compound 52.

Data set [18] concerns central nervous, renal, and gastrointestinal systems of mice. Further details: species or system CD-1 mouse. As to conditions: mouse, in vivo.
Text: as §5

Data set [19] concerns S. typhimurium and E. coli. The data set is described as follows: Bacterial mutation test. Type of data set: cell-based. As to conditions: up to 5,000 μg/plate, with and without S9. On the procedure:
(§6) The potential for compound 52 to induce mutations in a bacterial system (S. typhimurium and E. coli—at concentrations up to 5,000 μg/plate), to induce chromosomal aberrations in cultures of human peripheral blood lymphocytes (at concentrations up to 84 μg/mL), and to induce clastogenic and/or aneugenic activity in CD-1 mice (at oral doses up to 2,000 mg/kg) was evaluated. The two in vitro studies were performed with and without the addition of a mammalian metabolic activation system (rat liver S9 subcellular fraction).

Data set [20] relates to CD-1 mice. The data set is classed as in vivo. As to conditions: oral doses up to 2,000 mg/kg. On the procedure: as §6
For data set [21] the following is noted: mouse plasma.
The conditions of data set [22]: human plasma.

Read-outs that look alike come from different tables or passages of the source.

As a reminder, the IC50 is the concentration that inhibits the measured activity by half. Broadly, the EC50 is the midpoint of the concentration-response curve. A high value points to weaker potency.

Take `COc1ccc2c(O[C@H]3CCN4C(=O)N(C)CCCC/C=C\[C@@H]5C[C@@]5(C(=O)NS(=O)(=O)C5(C)CC5)NC(=O)[C@@H]4C3)cc(-c3nc(C(F)(F)F)cs3)nc2c1C` [Compound 52, 1-methyl-cyclopropanesulfonic acid{(Z)-(1S,4R,6S,18S)-18-[7-methoxy-8-methyl-2-(4-trifluoromethyl-thiazol-2-yl)-quinolin-4-yloxy]-13-methyl-2,14-dioxo-3,13,15-triaza-tricyclo[13.4.0.0*4,6*]nonadec-7-ene-4-carbonyl}amide]: the 50% inhibitory concentration (IC50) in data set [1] was 1.2 ± 0.1 nM; in [2] it was 23 ± 1.9 nM; in data set [15] it was not below 10000 nM; in data set [16], not below 10000 nM. In addition, the “Selectivity Index” value in data set [3] is on record as 50,400. Further, in [3] (Hepatitis C virus, 72 h, three days, luciferase assay), the concentration giving a half-maximal response (EC50) stood at 0.5 ± 0.1 nM. Further, the Fold-Change in data set [4] worked out at 1037 ± 144; in data set [5] it was 0.5 ± 0.1; in [6], 27.1 ± 9.5; in data set [7] it was 575 ± 210; in data set [8], 41.4 ± 17.8; in [9], 4587 ± 1003. Further, the Fold-Change in [10] amounted to 1107 ± 513; in data set [11] it was 5.7 ± 0.9; in data set [12], 9.0 ± 1.7; in [13] it was 0.6 ± 0.09; in data set [14] it was 1.4 ± 0.2. Moreover, the “effects on the cardiovascular and respiratory systems” value in data set [17] was “no effects”. The “effects on the central nervous system, renal function, or gastrointestinal motility” value in [18] is recorded as “no effects”. Further, in data set [19], the “genotoxicity, bacterial mutation test” value is listed as “no genotoxicity”. For the same compound, in data set [20], the “genotoxicity, mouse micronucleus test” value is reported as “no genotoxicity”. For the same compound, the “protein bound in plasma” value was determined as 99.2% in [21] and 99.6% in data set [22].
